According to US7868015B2, “Phosphodiesesterase 4 inhibitors for the treatment of a cognitive deficit” (Cold Spring Harbor Laboratory, priority 2000, dated 2011):
“Also recorded” adds a separate entry of the source.

Tests used:
normal, young adult mice = settings: delivered directly to the hippocampus, intraventricularly or intraperitoneally (Scott et al. 2002); cited from earlier work
wildtype mice = assay: Object recognition task, long-term memory in wildtype mice; format: in vivo; settings: for 24 hour memory retention versus vehicle-alone group: 3.5 minute training (FIG. 6)
Source text: (§1) Generation of CBP^+/- mice was described by Oike et al. (Human Molecular Genetics, 8:387-396 (1999)). […] For these studies, animals were generated by crossing CBP^+/- mice to C57BL/6 females (Jackson laboratory). The mice were genotyped with a PCR protocol as described previously (Oike, Y. et al., Human Molecular Genetics, 8:387-396 (1999)). Age-(12 to 14 weeks old by the time of handling) and gender-matched mutant mice and wildtype littermates were used for all experiments. Mice were handled for 3-5 minutes for 5 days. […] The first set was used for experiments summarized in FIGS. 3 and 4 (n=10 per genotype). The second set was used for the experiment summarized in FIG. 5 (wildtype mice, n=20). For each experiment, the same set of animals was used repeatedly with different (new) sets of objects for each repetition. […] (iii) each experimental condition was replicated 2-4 independent times, and replicate days were added to generate final number of subjects. Five-to-eight sessions were performed on each set of mice. Each mouse was trained and tested no more than once per week and with a one-week interval between testing. In experiments with drug-injections (see below), vehicle-injected mice and high/low-dose-injected mice, were counterbalanced. In each experiment, the experimenter was unaware (blind) to the treatment of the subjects during training and testing. […] Mice were presented with two objects, one of which was used during training, and thus was 'familiar' and the other of which was novel (e.g. a small pyramid-shape object). The test objects were divided into ten sets of two “training” plus on “testing” objects, and a new set of objects was used for each training session. After each experimental subject, the apparatus and the objects were cleaned with 90% ethanol, dried and ventilated for a few minutes. […] In addition, vehicle- and drug-injected mice were counterbalanced from experiment to experiment. Such design allowed at least two weeks wash-out time between repeated usages of high doses. […] The experiments were videotaped via an overhead video camera system. Types were reviewed by a blinded observer and the following behavioral parameters were determined: time of exploration of an each object; the total time of exploration of the objects; number of approaches to the objects; and time (latency) to first approach to an object. The discrimination index was determined as described previously (Ennaceur, A. & Aggleton, J. P., Behav. Brain Res., 88:181-193 (1997)). The data were analyzed by Student's unpaired t test using statistical software package ([…] Institute, Inc). All values in the text and figure legends are expressed as mean±SEM.

[1] = system: somatostatin, an endogenous cAMP-responsive gene, in human neuroblastoma cells; assay: Real-time PCR of somatostatin expression, forskolin-stimulated human neuroblastoma cells; format: cell-based; settings: for effect on expression of CRE-dependent endogenous gene somatostatin: FIG. 2, in words; for increase in forskolin-induced expression of somatostatin: real-time PCR, ΔCt above vehicle alone (FIG. 2B)
Source text: FIG. 2B is a bar graph representation depicting results showing that the PDE4 inhibitors rolipram and HT0712 enhance forskolin-induced gene expression in human neuroblastoma cells. Real-time PCR was used to quantify expression of somatostatin, an endogenous cAMP-responsive gene. Expression levels induced by forskolin or by forskolin+drug are quantified as differences in threshold cycle number (ΔCt) above vehicle alone control groups.

[2] = system: CRE-luciferase reporter gene in human neuroblastoma cells; assay: CRE-luciferase reporter gene assay, forskolin-stimulated human neuroblastoma cells; format: cell-based; settings: for effect on CRE-luciferase expression: FIG. 2, in words; for increase of forskolin-induced CRE-luciferase expression above forskolin alone: drug for two hours before suboptimal dose of forskolin, assayed 4 hours after forskolin stimulation (FIG. 2A)
Source text: FIG. 2A is a bar graph representation depicting results showing that the PDE4 inhibitors rolipram and HT0712 enhance forskolin-induced gene expression in human neuroblastoma cells. Relative light units (RLU) emitted from luciferase were quantified in human neuroblastoma cells stably transfected with a CRE-luciferase reporter gene and exposed to vehicle alone or drug (HT0712 or rolipram) for two hours before stimulation by a suboptimal dose of forskolin.
A high-throughput drug screen was accomplished using human neuroblastoma cells, which were stably transfected with a luciferase reporter gene driven by a CRE (cAMP response element) promoter (a drug screen for enhancers of CREB function) (Scott, R. et al., J. Mol. Neurosci., 19:171-177 (2002)). Cells were exposed to drug for two hours and then stimulated with a suboptimal dose of forskolin for another four hours. […] Among the dozens of confirmed hits for several molecular targets identified from this screen, inhibitors of PDE4 were numerous.

CBP^+/− mutant mice = assay: Object recognition task, long-term memory in CBP+/− mutant mice; format: in vivo; settings: for 24 hour memory retention versus vehicle-alone group: 3.5 minute training (FIG. 6); for memory retention, drug-treated CBP+/− mutants versus drug-treated wildtype mice / 24 hour memory retention (Discrimination Index) versus vehicle-injected mutants: 0.1 mg/kg i.p. 20 minutes before 15 minute training, tested 24 hours later (FIG. 4); for 24 hour memory retention (Discrimination Index) versus vehicle-injected mutants: p<0.05
Source text: as §1

[3] = Half-life (wash-out consideration); settings: mouse, in vivo
Procedure: HT0712 was administered intraperitoneally (i.p.) at doses: 0.001 mg/kg; 0.005 mg/kg; 0.01 mg/kg; 0.05 mg/kg; 0.1 mg/kg, 0.15 mg/kg and 0.2 mg/kg. Rolipram (Sigma) was administered i.p. at dose 0.1 mg/kg. Drug compounds were injected with one week interval to allow sufficient wash-out time (the half-life for HT0712 and Rolipram <3 hours). In addition, vehicle- and drug-injected mice were counterbalanced from experiment to experiment. Such design allowed at least two weeks wash-out time between repeated usages of high doses.

aged rats = settings: Barad et al. 1998; cited from earlier work
[4] = i.p., 3.5 minute training, 24-hour memory (FIG. 6)

In the case of `COc1ccc([C@H]2CNC(=O)[C@H](Cc3cccc(C)c3)C2)cc1OC1CCCC1` [HT0712, (3S,5S)-5-(3-cyclopentyloxy-4-methoxy-phenyl)-3-(3-methyl-benzyl)-piperidin-2-one], the “long-term memory formation after contextual fear conditioning” value (normal, young adult mice) is listed as “enhanced”, the “24 hour memory retention versus vehicle alone” value (wildtype mice; 0.05 mg/kg i.p. 20 min before 3.5 minute training (FIG. 5), p<0.05) is listed as “significantly increased; also recorded: significantly higher” and the “24 hour memory retention versus vehicle-alone group” value (wildtype mice; 0.05 mg/kg i.p., p<0.005) is listed as “significant enhancement; also recorded: higher”. For the same compound, the “24 hour memory retention versus vehicle alone” value (wildtype mice; 0.10 mg/kg i.p. 20 min before 3.5 minute training (FIG. 5), p<0.0001) was “significantly increased; also recorded: significantly higher”, the “24 hour memory retention versus vehicle-alone group” value (wildtype mice; 0.10 mg/kg i.p., p<0.0001) was “higher” and the “24 hour memory retention versus vehicle alone” value (wildtype mice; 0.15 mg/kg i.p. 20 min before 3.5 minute training (FIG. 5), p<0.001) was “significantly increased; also recorded: significantly higher”. For the same compound, the “24 hour memory retention versus vehicle-alone group” value (wildtype mice; 0.15 mg/kg i.p., p<0.005) was “higher”, the “24 hour memory retention versus vehicle-alone group” value (wildtype mice; 0.2 mg/kg i.p., p<0.005) was “higher” and the “24 hour memory retention versus vehicle alone” value (wildtype mice; 0.50 mg/kg i.p., 3.5 minute training (FIG. 5)) was “failed to produce any memory enhancement”. The “24 hour memory retention versus vehicle alone” value (wildtype mice; below 0.05 mg/kg i.p., 3.5 minute training (FIG. 5)) was “failed to produce any memory enhancement”, the peak effective dose (wildtype mice; [4]) was 0.10 mg/kg and the “effect on expression of CRE-dependent endogenous gene somatostatin” value [1] was “robust effects”. For the same compound, the “increase in forskolin-induced expression of somatostatin” value [1] was 4.6 fold, the “effect on CRE-luciferase expression” value [2] was “robust effects” and the “increase of forskolin-induced CRE-luciferase expression above forskolin alone” value [2] was 1.9 fold. The “24 hour memory retention versus vehicle-alone group” value (CBP^+/− mutant mice; 0.05 mg/kg i.p., p=0.79) was “did not; also recorded: failed to enhance memory”, the “memory retention, drug-treated CBP+/− mutants versus drug-treated wildtype mice” value (CBP^+/− mutant mice) was “did not differ significantly” and the “24 hour memory retention (Discrimination Index) versus vehicle-injected mutants” value (CBP^+/− mutant mice) was “restored 24-hour memory; also recorded: significantly higher”. For the same compound, the “24 hour memory retention versus vehicle-alone group” value (CBP^+/− mutant mice; 0.10 mg/kg i.p., p<0.0001) was “higher”, the “24 hour memory retention versus vehicle-alone group” value (CBP^+/− mutant mice; 0.15 mg/kg i.p., p<0.0001) was “higher” and the “24 hour memory retention versus vehicle-alone group” value (CBP^+/− mutant mice; 0.2 mg/kg i.p., p<0.0001) was “higher”. The “dose at which memory enhancement was first seen (initial effective dose)” value (CBP^+/− mutant mice; [4]) was 0.10 mg/kg, the peak effective dose (CBP^+/− mutant mice; [4]) was 0.15 mg/kg and the half-life [3] was less than 3 h.
For `COc1ccc(C2CNC(=O)C2)cc1OC1CCCC1` (stereo not drawn) [rolipram, reference compound], the “long-term memory formation after contextual fear conditioning” value (normal, young adult mice) is listed as “enhanced”, the “age-dependent loss of hippocampal-dependent memory and cellular long-term potentiation” value (aged rats) is listed as “ameliorates” and the “effect on expression of CRE-dependent endogenous gene somatostatin” value [1] is listed as “robust effects”. For the same compound, the “increase in forskolin-induced expression of somatostatin” value [1] was 2.3 fold, the “effect on CRE-luciferase expression” value [2] was “robust effects” and the “increase of forskolin-induced CRE-luciferase expression above forskolin alone” value [2] was 1.9 fold. For the same compound, the “memory retention, drug-treated CBP+/− mutants versus drug-treated wildtype mice” value (CBP^+/− mutant mice) was “did not differ significantly”, the “24 hour memory retention (Discrimination Index) versus vehicle-injected mutants” value (CBP^+/− mutant mice) was “restored 24-hour memory; also recorded: significantly higher” and the half-life [3] was less than 3 h.
